Experimental data as given in the supplement of paper PMC10307832.

compound: O=C(c1cc(Cc2n[nH]c(=O)c3ccccc23)ccc1F)N1CCN(C(=O)C2CC2)CC1 [Olaparib] + Cc1nc(Nc2ncc(C(=O)Nc3c(C)cccc3Cl)s2)cc(N2CCN(CCO)CC2)n1 [Dasatinib] (partner 0.075 µM); experiment: relative viability (nuclei count vs DMSO), 5 days (fraction); higher = more cells survive; settings: first compound 0.08 µM
How it was run: (§1)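 Dosing by pin tool came one day after lung cancer cell lines were seeded in 1536-well plates, using either one drug or a fixed anchor-drug dose plus five library-drug doses (not always all listed) in √10 steps. After 5 days, nuclei were counted on 4× images. Relative viability is treated-well nuclei count divided by vehicle-well nuclei count, and values are medians of duplicate plates.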

Q: LU99A was tested. Which relative viability did it give?
A: 0.624

Q: LXF-289 was tested. Which relative viability did it give?
A: 0.217

Q: Which relative viability does the source give for NCI-H23 here?
A: 0.922

Q: Which relative viability does the source give for NCI-H322M here?
A: 0.251

Q: With NCI-H460 as the cell line, how does the relative viability read?
A: 0.471

Q: With NCI-H520 as the cell line, how does the relative viability read?
A: 0.176

Q: Which relative viability does the source give for NCI-H596 here?
A: 0.597

Q: For NCI-H647, which relative viability is on record?
A: 0.249

Q: How did the relative viability turn out when NCI-H650 was run?
A: 0.478

Q: With NCI-H661 as the cell line, how does the relative viability read?
A: 0.801

Q: How did the relative viability turn out when NCI-H727 was run?
A: 0.439

Q: How did the relative viability turn out when NCI-H838 was run?
A: 0.303

Q: NCI-H1355 was tested. Which relative viability did it give?
A: 0.759

Q: With NCI-H1437 as the cell line, how does the relative viability read?
A: 0.548

Q: How did the relative viability turn out when NCI-H1563 was run?
A: 0.485

Q: With NCI-H1650 as the cell line, how does the relative viability read?
A: 0.313

Q: NCI-H1651 was tested. Which relative viability did it give?
A: 0.423

Q: Which relative viability does the source give for NCI-H1666 here?
A: 0.883

Q: Which relative viability does the source give for NCI-H1734 here?
A: 0.458

Q: Which relative viability does the source give for NCI-H1755 here?
A: 0.477

Q: With NCI-H1792 as the cell line, how does the relative viability read?
A: 0.816

Q: How did the relative viability turn out when NCI-H1915 was run?
A: 0.315

Q: For NCI-H1975, which relative viability is on record?
A: 0.396

Q: How did the relative viability turn out when NCI-H1993 was run?
A: 0.725

Q: How did the relative viability turn out when NCI-H2009 was run?
A: 0.42

Q: How did the relative viability turn out when NCI-H2023 was run?
A: 0.672

Q: How did the relative viability turn out when NCI-H2085 was run?
A: 0.292

Q: Which relative viability does the source give for NCI-H2087 here?
A: 1.27

Q: How did the relative viability turn out when NCI-H2126 was run?
A: 0.728

Q: Which relative viability does the source give for NCI-H2228 here?
A: 0.587

Q: How did the relative viability turn out when NCI-H2347 was run?
A: 0.335

Q: How did the relative viability turn out when NCI-H2405 was run?
A: 0.192

Q: With NCI-H3122 as the cell line, how does the relative viability read?
A: 0.463

same assay, conditions: first compound 0.253 µM

Q: How did the relative viability turn out when LU99A was run?
A: 0.467

Q: Which relative viability does the source give for LXF-289 here?
A: 0.172

Q: With NCI-H23 as the cell line, how does the relative viability read?
A: 0.802

Q: Which relative viability does the source give for NCI-H322M here?
A: 0.231

Q: With NCI-H460 as the cell line, how does the relative viability read?
A: 0.464

Q: NCI-H520 was tested. Which relative viability did it give?
A: 0.178

Q: How did the relative viability turn out when NCI-H596 was run?
A: 0.68

Q: For NCI-H647, which relative viability is on record?
A: 0.181

Q: NCI-H650 was tested. Which relative viability did it give?
A: 0.428

Q: With NCI-H661 as the cell line, how does the relative viability read?
A: 0.769

Q: NCI-H727 was tested. Which relative viability did it give?
A: 0.405

Q: Which relative viability does the source give for NCI-H838 here?
A: 0.259

Q: How did the relative viability turn out when NCI-H1355 was run?
A: 0.731

Q: Which relative viability does the source give for NCI-H1437 here?
A: 0.399

Q: NCI-H1563 was tested. Which relative viability did it give?
A: 0.516

Q: Which relative viability does the source give for NCI-H1650 here?
A: 0.342

Q: With NCI-H1651 as the cell line, how does the relative viability read?
A: 0.311

Q: With NCI-H1666 as the cell line, how does the relative viability read?
A: 0.68

Q: How did the relative viability turn out when NCI-H1734 was run?
A: 0.399

Q: How did the relative viability turn out when NCI-H1755 was run?
A: 0.399

Q: NCI-H1792 was tested. Which relative viability did it give?
A: 0.689

Q: For NCI-H1915, which relative viability is on record?
A: 0.294

Q: Which relative viability does the source give for NCI-H1975 here?
A: 0.346

Q: How did the relative viability turn out when NCI-H1993 was run?
A: 0.556

Q: For NCI-H2009, which relative viability is on record?
A: 0.279

Q: NCI-H2023 was tested. Which relative viability did it give?
A: 0.489

Q: How did the relative viability turn out when NCI-H2085 was run?
A: 0.225

Q: NCI-H2087 was tested. Which relative viability did it give?
A: 0.621

Q: Which relative viability does the source give for NCI-H2126 here?
A: 0.634

Q: NCI-H2228 was tested. Which relative viability did it give?
A: 0.495

Q: How did the relative viability turn out when NCI-H2347 was run?
A: 0.292

Q: For NCI-H2405, which relative viability is on record?
A: 0.181

Q: Which relative viability does the source give for NCI-H3122 here?
A: 0.823

same assay, conditions: first compound 2.53 µM

Q: Which relative viability does the source give for LU99A here?
A: 0.506

Q: With LXF-289 as the cell line, how does the relative viability read?
A: 0.196

Q: How did the relative viability turn out when NCI-H23 was run?
A: 0.61

Q: Which relative viability does the source give for NCI-H322M here?
A: 0.248

Q: How did the relative viability turn out when NCI-H460 was run?
A: 0.32

Q: For NCI-H520, which relative viability is on record?
A: 0.189

Q: With NCI-H596 as the cell line, how does the relative viability read?
A: 0.583

Q: NCI-H647 was tested. Which relative viability did it give?
A: 0.189

Q: Which relative viability does the source give for NCI-H650 here?
A: 0.424

Q: For NCI-H661, which relative viability is on record?
A: 0.7

Q: For NCI-H727, which relative viability is on record?
A: 0.469

Q: NCI-H838 was tested. Which relative viability did it give?
A: 0.272

Q: With NCI-H1355 as the cell line, how does the relative viability read?
A: 0.724

Q: How did the relative viability turn out when NCI-H1437 was run?
A: 0.441

Q: With NCI-H1563 as the cell line, how does the relative viability read?
A: 0.465

Q: NCI-H1650 was tested. Which relative viability did it give?
A: 0.287

Q: With NCI-H1651 as the cell line, how does the relative viability read?
A: 0.31

Q: For NCI-H1666, which relative viability is on record?
A: 0.693

Q: NCI-H1734 was tested. Which relative viability did it give?
A: 0.421

Q: NCI-H1755 was tested. Which relative viability did it give?
A: 0.44

Q: With NCI-H1792 as the cell line, how does the relative viability read?
A: 0.841

Q: With NCI-H1915 as the cell line, how does the relative viability read?
A: 0.28

Q: Which relative viability does the source give for NCI-H1975 here?
A: 0.381

Q: NCI-H1993 was tested. Which relative viability did it give?
A: 0.656

Q: How did the relative viability turn out when NCI-H2009 was run?
A: 0.304

Q: NCI-H2023 was tested. Which relative viability did it give?
A: 0.528

Q: With NCI-H2085 as the cell line, how does the relative viability read?
A: 0.241

Q: Which relative viability does the source give for NCI-H2087 here?
A: 0.804

Q: Which relative viability does the source give for NCI-H2126 here?
A: 0.558

Q: Which relative viability does the source give for NCI-H2228 here?
A: 0.458

Q: For NCI-H2347, which relative viability is on record?
A: 0.293

Q: NCI-H2405 was tested. Which relative viability did it give?
A: 0.204

Q: With NCI-H3122 as the cell line, how does the relative viability read?
A: 0.873

same assay, conditions: first compound 8 µM

Q: LU99A was tested. Which relative viability did it give?
A: 0.228

Q: How did the relative viability turn out when LXF-289 was run?
A: 0.171

Q: With NCI-H23 as the cell line, how does the relative viability read?
A: 0.488

Q: How did the relative viability turn out when NCI-H322M was run?
A: 0.252

Q: With NCI-H460 as the cell line, how does the relative viability read?
A: 0.178

Q: Which relative viability does the source give for NCI-H520 here?
A: 0.153

Q: NCI-H596 was tested. Which relative viability did it give?
A: 0.454

Q: NCI-H647 was tested. Which relative viability did it give?
A: 0.175

Q: With NCI-H650 as the cell line, how does the relative viability read?
A: 0.372

Q: For NCI-H661, which relative viability is on record?
A: 0.715

Q: With NCI-H727 as the cell line, how does the relative viability read?
A: 0.324

Q: How did the relative viability turn out when NCI-H838 was run?
A: 0.256

Q: Which relative viability does the source give for NCI-H1355 here?
A: 0.703

Q: Which relative viability does the source give for NCI-H1437 here?
A: 0.39

Q: How did the relative viability turn out when NCI-H1563 was run?
A: 0.42

Q: How did the relative viability turn out when NCI-H1650 was run?
A: 0.285

Q: How did the relative viability turn out when NCI-H1651 was run?
A: 0.218

Q: How did the relative viability turn out when NCI-H1666 was run?
A: 0.651

Q: How did the relative viability turn out when NCI-H1734 was run?
A: 0.326

Q: How did the relative viability turn out when NCI-H1755 was run?
A: 0.404

Q: For NCI-H1792, which relative viability is on record?
A: 0.62

Q: NCI-H1915 was tested. Which relative viability did it give?
A: 0.252

Q: Which relative viability does the source give for NCI-H1975 here?
A: 0.364

Q: NCI-H1993 was tested. Which relative viability did it give?
A: 0.716

Q: Which relative viability does the source give for NCI-H2009 here?
A: 0.272

Q: NCI-H2023 was tested. Which relative viability did it give?
A: 0.467

Q: For NCI-H2085, which relative viability is on record?
A: 0.226

Q: NCI-H2087 was tested. Which relative viability did it give?
A: 0.617

Q: For NCI-H2126, which relative viability is on record?
A: 0.606

Q: NCI-H2228 was tested. Which relative viability did it give?
A: 0.304

Q: With NCI-H2347 as the cell line, how does the relative viability read?
A: 0.294

Q: With NCI-H2405 as the cell line, how does the relative viability read?
A: 0.217

Q: For NCI-H3122, which relative viability is on record?
A: 0.696

compound: CC(C)C[C@H](NC(=O)[C@H](CCc1ccccc1)NC(=O)CN1CCOCC1)C(=O)N[C@@H](Cc1ccccc1)C(=O)N[C@@H](CC(C)C)C(=O)[C@@]1(C)CO1 [Carfilzomib] + CC(C)C[C@H](NC(=O)[C@H](Cc1ccccc1)NC(=O)c1cnccn1)B(O)O [Bortezomib] (partner 0.002 µM); experiment: as above; settings: first compound 0.001 µM
How it was run: as §1

Q: Which relative viability does the source give for LU99A here?
A: 1.09

Q: How did the relative viability turn out when LXF-289 was run?
A: 1.03

Q: With NCI-H23 as the cell line, how does the relative viability read?
A: 1.01

Q: How did the relative viability turn out when NCI-H322M was run?
A: 1.27

Q: With NCI-H460 as the cell line, how does the relative viability read?
A: 1.06

Q: For NCI-H520, which relative viability is on record?
A: 0.45

Q: Which relative viability does the source give for NCI-H596 here?
A: 0.885

Q: How did the relative viability turn out when NCI-H647 was run?
A: 0.674

Q: How did the relative viability turn out when NCI-H650 was run?
A: 0.587

Q: NCI-H661 was tested. Which relative viability did it give?
A: 0.801

Q: Which relative viability does the source give for NCI-H727 here?
A: 0.72

Q: Which relative viability does the source give for NCI-H838 here?
A: 0.772

Q: For NCI-H1355, which relative viability is on record?
A: 1.07

Q: NCI-H1437 was tested. Which relative viability did it give?
A: 0.473

Q: Which relative viability does the source give for NCI-H1563 here?
A: 0.815

Q: For NCI-H1651, which relative viability is on record?
A: 0.895

Q: NCI-H1666 was tested. Which relative viability did it give?
A: 0.987

Q: With NCI-H1734 as the cell line, how does the relative viability read?
A: 0.848

Q: For NCI-H1755, which relative viability is on record?
A: 0.929

Q: Which relative viability does the source give for NCI-H1792 here?
A: 0.962

Q: With NCI-H1915 as the cell line, how does the relative viability read?
A: 0.906

Q: How did the relative viability turn out when NCI-H1975 was run?
A: 0.255

Q: For NCI-H1993, which relative viability is on record?
A: 0.912
